Data as given in publication PMC9126943, “ADAMTS4-specific MR probe to assess aortic aneurysms in vivo using synthetic peptide libraries” (Nature Communications, 2022).
Values joined by “and” are separate entries in the source; they are usually repeats but may differ in a detail not shown here. Equal values may be shown once. Where a SMILES comes first, the peptide text is derived from it. Bridges are numbered along the chain shown (N, C = ends). The star is where a group is joined. DOTA = O=C(O)CN1CCN(CC(=O)O)CCN(CC(=O)*)CCN(CC(=O)O)CC1

Molecular target: T1, ADAMTS4 in the aneurysmal aortic wall of ApoE−/− mice (Mus musculus, UniProt Q8BNJ2)
T1 construct: from tissue
T1 sequence (Q8BNJ2 209-833): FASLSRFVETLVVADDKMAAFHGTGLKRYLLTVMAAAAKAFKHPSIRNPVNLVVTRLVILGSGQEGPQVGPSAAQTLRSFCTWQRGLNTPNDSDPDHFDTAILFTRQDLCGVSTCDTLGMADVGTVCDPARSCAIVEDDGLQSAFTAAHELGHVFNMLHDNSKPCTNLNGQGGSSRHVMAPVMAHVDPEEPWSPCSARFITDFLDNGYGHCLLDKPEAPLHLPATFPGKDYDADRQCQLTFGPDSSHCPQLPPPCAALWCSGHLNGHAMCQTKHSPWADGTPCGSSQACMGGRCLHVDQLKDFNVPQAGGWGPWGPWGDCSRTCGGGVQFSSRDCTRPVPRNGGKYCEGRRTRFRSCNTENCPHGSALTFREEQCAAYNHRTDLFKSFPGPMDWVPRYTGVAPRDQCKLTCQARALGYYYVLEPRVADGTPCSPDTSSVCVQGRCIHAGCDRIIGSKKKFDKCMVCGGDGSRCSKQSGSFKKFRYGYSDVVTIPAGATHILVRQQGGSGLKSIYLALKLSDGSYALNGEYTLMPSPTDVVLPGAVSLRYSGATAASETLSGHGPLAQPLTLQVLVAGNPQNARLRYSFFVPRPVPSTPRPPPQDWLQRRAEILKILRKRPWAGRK
Experiment: In vivo MRI, cross-sectional study (2 and 4 weeks AngII, sham)
Settings: for CNR after administration, individual animals: one line per mouse
Procedure: All procedures and animal maintenance were performed according to the guidelines and regulations of the Federation of Laboratory Animal Science Associations (FELASA) and the local Guidelines and Provisions for Implementation of the Animal Welfare Act. The animal studies were approved by the local authorities (Lageso Berlin.) Mice were obtained from the Research Institute of Experimental Medicine at the Charité Berlin and maintained under barrier conditions, including a dark/light cycle of 12 h, an ambient temperature of 20 °C, and a humidity of 45%. A standard laboratory diet and water were provided ad libitum. For aneurysm induction, male 8-week-old apolipoprotein-E knockout (ApoE^−/−) (B6.129P2-ApoE^tm1Unc/J) mice underwent implantation of osmotic minipumps (Alzet model 2004, Durect Corp). Osmotic minipumps were implanted subcutaneously in the dorsal neck region and continuously delivered angiotensin II (AngII, Merck KGaA, Darmstadt, Germany) (1000 ng/kg/min) for up to 28 days (n = 32). Sham-operated mice (n = 10) served as the control group, receiving saline for 28 days instead of AngII via the osmotic minipumps.
For the cross-sectional study, MR imaging was performed after two and 4 weeks of AngII-infusion (n = 10 per group). […]
MR imaging was performed using a clinical 3 T Siemens system (Biograph, Siemens Healthcare Solutions, Erlangen, Germany). […] Following anesthesia injection, the animals were positioned in a prone position, and body temperature (37 °C) was monitored using an MR-compatible heating system (Model 1025, SA Instruments Inc, Stony Brook, NY) to avoid rapid cooling. […]
Analysis of resulting MR images was performed using OsiriX (version 7.1, OsiriX Foundation, Bernex, Switzerland). […] In order to assess the signal intensities, regions of interest (ROIs) were measured as areas of signal enhancement, which were co-localized with areas of aneurysmal-aortic tissue. For these areas, the CNR was calculated using the following formula: CNR = (Combined vessel-wall and aneurysmal-aortic-tissue-signal − blood-signal)/standard-deviation-signal (noise). […]

## N=C(N)NCCC[C@@H]1NC(=O)[C@H](CCCNC(=N)N)NC(=O)[C@H](CO)NC(=O)[C@@H](N)CSSC[C@@H](C(=O)N[C@@H](CO)C(=O)NCC(=O)NCC(=O)N[C@@H](CO)C(=O)NCC(=O)NCC(=O)N[C@@H](CCCCNC(=O)CN2CCN(CC(=O)O)CCN(CC(=O)O)CCN(CC(=O)O)CC2)C(=O)NCC(N)=O)NC(=O)CNC1=O (Gd complex, metal not drawn) [ADAMTS4-specific probe] (H-CSRRGCSGGSGGK(DOTA)G-NH2; disulfide 1-6)
4 weeks AngII (4w)
  CNR after administration, individual animals: 13.92 and 11.1 and 12.72 and 12.01 and 12.59 and 22.52 and 20.4 and 10.53 and 14.06 and 16.11
Individual mice, n = 7
  CNR of the mice analysed by ICP-MS (Figure 7a): 9.44 and 11.51 and 11.44 and 12.92 and 6.96 and 7.76 and 7.00
Sham (s)
  CNR after administration, individual animals: 6.04 and 7.8 and 7.62 and 6.96 and 7.76 and 7 and 7.77 and 7.23 and 7.52
